Key:
TRPV4 [1] = molecular target: T1, TRPV4 (Homo sapiens, UniProt Q9HBA0); assay: Calcium imaging of TRPV4-mediated [Ca2+]i in human PSCs; format: cell-based
T1 construct: Fresh, human pancreatic tissue was digested with collagenase as described above with modifications; endogenous in cells; host or cells: primary human pancreatic stellate cells from fresh human pancreatic tissue
Experimental: Mouse and human PSCs were isolated using collagenase digestion. Modified Krebs Henseleit Buffer (KHB) solution (100 mL) was prepared as previously described by Romac et al., Nat. Commun. 9(1):1715 (2018). Pancreatic tissue was digested with 2 mg of collagenase NB 8 (SERVA, catalog 17456) dissolved in 10 mL of modified KHB solution containing 1 mg soybean trypsin inhibitor (SBTI 1-S; Millipore Sigma, catalog T9003) and 20 mg BSA (Thermo Fisher Scientific; BP1600-100). Digestion solution (5 mL) was used to inflate the pancreas. Pancreas with 5 mL of digestion solution was incubated in a shaking water bath for 10 minutes at 37° C. The solution was then discarded. The pancreas tissue was cut into small pieces and digested with fresh 5 mL digestion buffer. Tissue was incubated in a shaking water bath for 40 minutes at 37° C. The cells were then separated from tissue by pipetting up-down with a 10 mL pipette and passed sequentially through a 70 μm and a 40 μm cell strainer. The filtrate was centrifuged at 150×g for 3 minutes at room temperature. The cells were washed with 10 mL Leibovitz's media (Thermo Fisher Scientific, catalog 11415-064), passed through a 20 μm filter, and centrifuged at 80×g for 3 minutes at room temperature. […] The cell viability following Yoda1 treatment was analyzed using the Live/Dead cell imaging kit (Thermo Fisher Scientific, catalog R37601). […]

TRPV4 [2] = molecular target: T2, TRPV4 (Mus musculus, UniProt Q9EPK8); assay: Calcium imaging of TRPV4-mediated [Ca2+]i in mouse PSCs; format: cell-based
T2 construct: endogenous in cells; host or cells: freshly isolated mouse pancreatic acini (C57BL/6J WT)
T2 sequence (Q9EPK8 whole entry): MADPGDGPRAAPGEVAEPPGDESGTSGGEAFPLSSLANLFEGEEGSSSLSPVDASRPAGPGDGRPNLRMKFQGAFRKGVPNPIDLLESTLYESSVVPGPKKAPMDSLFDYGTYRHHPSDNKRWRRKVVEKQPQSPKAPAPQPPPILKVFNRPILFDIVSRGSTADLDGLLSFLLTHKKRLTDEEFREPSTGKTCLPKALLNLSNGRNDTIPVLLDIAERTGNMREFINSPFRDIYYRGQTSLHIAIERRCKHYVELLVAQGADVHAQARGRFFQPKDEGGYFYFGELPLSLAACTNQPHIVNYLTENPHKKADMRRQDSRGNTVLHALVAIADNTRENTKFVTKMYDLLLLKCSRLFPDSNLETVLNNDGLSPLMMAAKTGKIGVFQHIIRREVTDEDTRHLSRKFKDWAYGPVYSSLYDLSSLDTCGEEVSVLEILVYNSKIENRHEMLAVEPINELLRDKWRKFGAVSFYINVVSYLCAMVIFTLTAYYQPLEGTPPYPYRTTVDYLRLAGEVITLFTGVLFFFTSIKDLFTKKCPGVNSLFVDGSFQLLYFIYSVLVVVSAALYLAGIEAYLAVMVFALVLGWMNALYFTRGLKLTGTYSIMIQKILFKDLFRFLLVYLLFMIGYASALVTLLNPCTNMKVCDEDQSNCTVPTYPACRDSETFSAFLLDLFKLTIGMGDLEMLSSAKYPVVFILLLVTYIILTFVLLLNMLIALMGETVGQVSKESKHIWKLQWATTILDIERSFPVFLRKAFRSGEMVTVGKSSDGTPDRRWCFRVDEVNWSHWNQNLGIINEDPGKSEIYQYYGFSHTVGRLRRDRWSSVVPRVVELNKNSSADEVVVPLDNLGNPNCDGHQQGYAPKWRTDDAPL
Experimental: Mouse and human PSCs were isolated using collagenase digestion. Modified Krebs Henseleit Buffer (KHB) solution (100 mL) was prepared as previously described by Romac et al., Nat. Commun. 9(1):1715 (2018). Pancreatic tissue was digested with 2 mg of collagenase NB 8 (SERVA, catalog 17456) dissolved in 10 mL of modified KHB solution containing 1 mg soybean trypsin inhibitor (SBTI 1-S; Millipore Sigma, catalog T9003) and 20 mg BSA (Thermo Fisher Scientific; BP1600-100). Digestion solution (5 mL) was used to inflate the pancreas. Pancreas with 5 mL of digestion solution was incubated in a shaking water bath for 10 minutes at 37° C. The solution was then discarded. The pancreas tissue was cut into small pieces and digested with fresh 5 mL digestion buffer. Tissue was incubated in a shaking water bath for 40 minutes at 37° C. The cells were then separated from tissue by pipetting up-down with a 10 mL pipette and passed sequentially through a 70 μm and a 40 μm cell strainer. The filtrate was centrifuged at 150×g for 3 minutes at room temperature. The cells were washed with 10 mL Leibovitz's media (Thermo Fisher Scientific, catalog 11415-064), passed through a 20 μm filter, and centrifuged at 80×g for 3 minutes at room temperature. The supernate was removed, and isolated stellate cells were plated on a thin-layered Matrigel-coated glass bottom culture plate (MatTek, P35G-0-14-C). Before plating the cells, Matrigel solution (Corning, catalog 354234) at a ratio of 1.5:100 DMEM/F12 (Thermo Fisher Scientific, catalog 11330-032) was poured onto the culture plate and incubated for 2 hr at 37° C. to form a thin layer of Matrigel coating. Matrigel mixture was removed, and the plate was washed with PBS before cells were plated. Cell culture media, DMEM/F12 with 5% FBS was used for mouse stellate cells. Fresh, human pancreatic tissue was digested with collagenase as described above with modifications. […] The cell viability following Yoda1 treatment was analyzed using the Live/Dead cell imaging kit (Thermo Fisher Scientific, catalog R37601). […]

TRPV4 [3] = molecular target: T2, TRPV4; assay: Calcium imaging of TRPV4-mediated [Ca2+]i in pancreatic acini (agonists, shear stress, Yoda1 sustained phase); format: cell-based
Experimental: (§1) Mouse pancreatic acini were isolated using a standard collagenase digestion protocol. Isolated acini were plated on a thin-layered, Matrigel-coated, glass-bottom, culture plate (MatTek, P35G-0-14-C). Freshly isolated acini were used in each experiment.
Parallel-plate fluid flow chambers (μ-Slide I 0.4 Luer, and μ-Slide I 0.2 Luer from Ibidi GmbH) were used to measure the shear stress-induced changes in intracellular calcium, mitochondrial depolarization, and trypsin activation. The constant flow rate with shear stress (T) was determined as follows: τ=η×[…] φ for μ-Slide I 0.4 Luer and τ=η×330.4 φ for μ-Slide I 0.2 Luer, where η=viscosity of the medium and φ=flow rate (according to the manufacturer's instructions, Ibidi).
(§2) Calcium imaging in pancreatic acini was performed as previously described. The chemicals used in calcium imaging experiments included the following: Yoda1 (Tocris; 5586), GsMTx4 (Abcam; ab141871), 5′,6′-EET (Santa Cruz Biotechnology; sc-221066), AA (Millipore Sigma; A3611), HC067047 (Tocris; 4100), GSK1016790A (Millipore Sigma; G0798), RN1734 (Tocris; 3746), AACOCF3 (Tocris; 1462), YM26734 (Tocris; 2522), GF109203X (Tocris; 0741), and CCK8 (Sigma-Aldrich).

KPCY cells = assay: Orthotopic KPCY cell PDAC model with TRPV4 blocker via osmotic minipump; format: in vivo, mouse; details: GSK2193874 20 mg/mL, 100 μL in subcutaneous osmotic minipump, 20 days; preliminary
Experimental: In this experimental model, KPCY cells (100,000 cells in 25 μL phosphate buffer saline pH 7, containing 1% Matrigel) are injected into the tail region of the pancreas with and without a TRPV4 blocker to investigate if a TRPV4 inhibitor can inhibit PDAC growth and stop cancer cell metastasis. For accurate and continuous dosing, the TRPV4 blocker is placed in an infusion osmotic minipump (ALZET) implanted subcutaneously. Mice are observed for 20 days. On day 20, liver and pancreas tissue are processed for microscopic imaging and quantification of mRNA levels. Serum samples are collected for analysis and quantification of pro-metastatic factors.
Tumor growth and serum SAA were measured 20 days after transplantation of KPCY cells into the pancreas, as described in FIG. 33. Mice were treated with GSK2193874 (20 mg/mL) dissolved in 6% cavitron saline buffer and 100 μL drug solution was loaded in an osmotic minipump implanted subcutaneously for 20 days.
KPCY cells resuspended in PBS+1% matrigel after trypsinization. Either 10,000 or 100,000 cells in 20 μl PBS were injected into the pancreatic tail. […]
Orthotopic injection of KPCY cells with implantation of micro-osmotic pump (Alzet, 1004) filled with either vehicle (6% cavitron W7 HP7 in water—Ashland) or GSK2193874 at 20 mg/mL. Mice were euthanized 20 days later, and organs were measured and harvested. […]

pancreatic acini = assay: CCK-induced [Ca2+]i in pancreatic acini; format: cell-based, mouse; details: HC067 1 μM; CCK 1 nM
Experimental: as §1, §2

T1 sequence (Q9HBA0 whole entry): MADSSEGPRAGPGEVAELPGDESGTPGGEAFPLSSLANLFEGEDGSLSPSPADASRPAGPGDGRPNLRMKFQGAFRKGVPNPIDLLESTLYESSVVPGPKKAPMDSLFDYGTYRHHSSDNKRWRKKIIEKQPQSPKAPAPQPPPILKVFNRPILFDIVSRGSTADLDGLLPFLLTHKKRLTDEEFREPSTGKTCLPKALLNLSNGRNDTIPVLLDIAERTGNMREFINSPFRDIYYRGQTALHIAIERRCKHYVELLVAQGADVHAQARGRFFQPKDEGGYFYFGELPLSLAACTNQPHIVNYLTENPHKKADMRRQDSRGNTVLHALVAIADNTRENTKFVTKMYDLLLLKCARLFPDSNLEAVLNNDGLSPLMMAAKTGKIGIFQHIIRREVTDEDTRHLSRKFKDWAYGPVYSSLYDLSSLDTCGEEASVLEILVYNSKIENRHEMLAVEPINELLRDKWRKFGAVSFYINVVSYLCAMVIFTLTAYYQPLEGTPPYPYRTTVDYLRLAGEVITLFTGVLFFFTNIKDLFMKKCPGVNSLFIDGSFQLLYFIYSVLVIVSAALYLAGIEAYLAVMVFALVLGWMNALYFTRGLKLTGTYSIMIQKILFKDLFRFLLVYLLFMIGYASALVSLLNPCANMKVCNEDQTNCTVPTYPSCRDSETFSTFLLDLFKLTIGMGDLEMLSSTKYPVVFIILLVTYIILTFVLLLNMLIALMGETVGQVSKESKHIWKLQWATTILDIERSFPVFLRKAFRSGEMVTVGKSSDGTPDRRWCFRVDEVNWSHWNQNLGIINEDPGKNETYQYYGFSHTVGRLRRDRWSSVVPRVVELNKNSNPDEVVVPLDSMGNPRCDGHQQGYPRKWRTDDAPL

Q: How did the “agonist effect on [Ca2+]i” value (TRPV4 [1]; GSK101 100 nM, quiescent human PSCs) turn out when CC(C)C[C@H](NC(=O)c1cc2ccccc2s1)C(=O)N1CCN(C(=O)[C@H](CO)NS(=O)(=O)c2ccc(Cl)cc2Cl)CC1 [GSK101] was run?
A: produced a sustained elevation in [Ca^2+]i

Q: What about the “agonist effect on [Ca2+]i” value (TRPV4 [2]; GSK101 100 nM, quiescent mouse PSCs) of the same compound?
A: produced a sustained elevation in [Ca^2+]i

Q: What about the “agonist effect on [Ca2+]i” value (TRPV4 [3]; GSK101 50 nM, arachidonic acid 20 μM, 5′,6′-EET 5 μM) of the same compound?
A: induced a significant increase in [Ca^2+]i

Q: What does the source list for O=C(NC1(c2ccccc2)CC1)c1c(CN2CCC(N3CCCCC3)CC2)c(-c2cccc(C(F)(F)F)c2)nc2cc(Br)ccc12 [GSK2193874]?
A: pancreatic cancer (PDAC) growth (KPCY cells): inhibited pancreatic cancer growth; serum SAA levels (KPCY cells): reduced serum SAA levels

Q: For Cc1c(C(=O)Nc2cccc(C(F)(F)F)c2)cc(-c2ccccc2)n1CCCN1CCOCC1 [HC067], which “effect on CCK-stimulated peak or sustained [Ca2+]i” value (pancreatic acini) is on record?
A: did not affect the CCK-stimulated (1 nM) peak or sustained [Ca^2+]i changes

Q: And the “effect on GSK1016790A-induced sustained [Ca2+]i elevation” value (TRPV4 [1]; HC067 1 μM, human PSCs)?
A: blocked

Q: What about the “effect on GSK1016790A-induced sustained [Ca2+]i elevation” value (TRPV4 [2]; HC067 1 μM, mouse PSCs) of the same compound?
A: blocked

Q: And the “effect on AA- and 5′,6′-EET-induced [Ca2+]i increases” value (TRPV4 [3]; HC067 100 nM)?
A: inhibited

Q: What about the “effect on GSK101 (50 nM)-induced [Ca2+]i increase” value (TRPV4 [3]; HC067 100 nM, RN1734 30 μM) of the same compound?
A: inhibited

Q: And the “effect on shear stress-induced sustained [Ca2+]i elevation” value (TRPV4 [3]; HC067 1 μM, 12 dyne/cm^2 for 30 seconds)?
A: blocked the sustained [Ca^2+]i elevation, leaving only transient alterations in [Ca^2+]i

Q: What about the “effect on Yoda1-stimulated sustained [Ca2+]i increase” value (TRPV4 [3]; HC067 1 μM, Yoda1 25 μM) of the same compound?
A: completely blocked the Yoda1-stimulated (25 μM) sustained increase in [Ca^2+]i
